{"source": "patent US20060122214A1", "about": "“Agent for prophylaxis and treatment of angiostenosis” (priority 1999, published 2006)", "key": {"[1]": {"system": "vascular smooth muscle cells (VSMC) derived from WKY rat aortic tunica media", "assay": "Proliferation ability of VSMC ([3H] thymidine uptake method)", "format": "cell-based", "conditions": "for [3H] thymidine uptake: 24 hours of culture, n = 5", "procedure": "(1) Effect on Proliferation Ability of Vascular Smooth Muscle Cells (VSMC) Derived from WKY Rat Aortic Tunica Media (Method) VSMC were separated and cultured according to the method of Yamamoto et al. (Yamamoto H, et al., Br. J. Exp. Pathol. 64; 156-165, 1983). The proliferation ability of VSMC was determined according to the method of Berk et al. [[^3H] thymidine uptake method; Berk B C, et al., J. Cell Physiol. 137; 391-401, 1988]. A DMEM medium containing 10% serum was changed every two days and the cells were cultured on a dish. The cells after 5 to 10 passages were subjected to the experiment. VSMC were cultured in a medium containing 1.0% serum for 24 hours and in a serum free medium for 24 hours to synchronize the cell cycle. The VSMC were transferred to a medium containing 10% fetal calf serum or a serum free medium and [^3H] thymidine (2 μCi/ml) was added to each medium to label VSMC. The test drug (Y-27632) (10 μM or 30 μM) waw simultaneously added, and after 24 hours of culture, VSMC were recovered, admixed with a scintillator (ACSII, Amersham) and subjected to the measurement of radioactivity by a liquid scintillation counter (LS6500, Beckman), based on which the [^3H] thymidine uptake was measured."}, "[2]": {"system": "left carotid artery intima of WKY rats", "assay": "Proliferation of regenerated intima after balloon injury of carotid artery in rat", "format": "in vivo", "conditions": "30 mg/kg intraperitoneal, consecutively from 3 days before operation, 14 days after the operation, control 1.88±0.24, sham 0.03±0.01", "procedure": "Effect on Proliferation of Regenerated Intima after Balloon Injury of Carotid Artery in Rat 2F Fogarty catheter was inserted from the outer left carotid artery of 8-week-old male WKY rats under anesthesia and inflated in the left common carotid artery, whereby intima was detached in the entire length. Physiological saline was consecutively administered to a control group, and the test drug (Y-27632) (30 mg/kg) was consecutively administered to a test group, wherein both groups underwent intraperitoneal administration starting from 3 days before operation. The rats free of the intima detachment treatment were used as a sham group. At 14 days after the operation, left carotid artery was subjected to perfusion fixation and removed thereafter, stained with HE, and a new intima thickness/medial thickness (I/M) ratio was measured."}, "[3]": {"system": "vascular smooth muscle cells (VSMC) derived from WKY rat aortic tunica media", "assay": "Migration ability of cultured VSMC (96 well chemotaxis chamber, A595)", "format": "cell-based", "conditions": "for A595 (VSMC migrated to the lower surface of the membrane): Y-27632 10 μM, cultured for 18 hours", "procedure": "(2) Effect on Migration Ability of Cultured VSMC (Method) A serum free medium or a medium containing 10% serum, which contained the test drug (Y-27632, 10 μM), was placed in a 96 well chemotaxis lower chamber, and a serum free medium containing the test drug was placed in 96 well chemotaxis upper and lower chambers where VSMC were suspended, and then cultured for 18 hours. The VSMC migrated to the lower surface of the membrane were stained with QuickDiff (International Reagents Corporation) and absorbance was measured at A595."}}, "data": [{"smiles": "C[C@@H](N)[C@H]1CC[C@H](C(=O)Nc2ccncc2)CC1", "note": "[Compound Y-27632, (+)-trans-4-(1-aminoethyl)-1-(4-pyridylcarbamoyl)cyclohexane 2HCl.1H2O]", "values": [{"measurement": "[3H] thymidine uptake", "setting": "[1]; +10% FCS, Y-27632 10 μM", "result": "360153 ± 10425", "unit": "dpm/dish"}, {"measurement": "[3H] thymidine uptake", "setting": "[1]; +10% FCS, Y-27632 30 μM", "result": "366089 ± 12882", "unit": "dpm/dish"}, {"measurement": "[3H] thymidine uptake", "setting": "[1]; FCS-free medium, Y-27632 10 μM", "result": "150381 ± 6515", "unit": "dpm/dish"}, {"measurement": "[3H] thymidine uptake", "setting": "[1]; FCS-free medium, Y-27632 30 μM", "result": "127767 ± 2482", "unit": "dpm/dish"}, {"measurement": "effect on [3H] thymidine uptake (in words)", "setting": "[1]; serum stimulation group and control group (serum free)", "result": "did not affect"}, {"measurement": "new intima thickness/medial thickness (I/M) ratio", "setting": "[2]", "result": "0.46±0.22"}, {"measurement": "A595 (VSMC migrated to the lower surface of the membrane)", "setting": "[3]; +10% FCS", "result": "0.036 ± 0.010", "unit": "arbitrary unit/well"}, {"measurement": "A595 (VSMC migrated to the lower surface of the membrane)", "setting": "[3]; FCS-Free", "result": "0.007 ± 0.003", "unit": "arbitrary unit/well"}, {"measurement": "effect on migration ability of VSMC (in words)", "setting": "[3]; both medium containing 10% serum and serum free medium", "result": "suppressed the migration ability"}]}]}
